In paper PMC7281298, “Exploring Kinase Inhibition Properties of 9H-pyrimido[5,4-b]- and [4,5-b]indol-4-amine Derivatives” (Pharmaceuticals, 2020):
Like-named read-outs stand apart in the source and are kept apart here.

Tests used:
GSK-3α/β = assay: Kinase inhibition assay, GSK-3α/β; type: biochemical; conditions: for IC50: average of triplicate determination (<10% variation), read-out: Kinase inhibitory potency (IC50) GSK-3α/β
Protocol: (§1) The inhibitory potency of the synthesized pyrimido[4,5-b]indol-4-amines and pyrimido[5,4-b]indol-4-amines towards CDK5/p25, CK1δ/ε, DYRK1A, and GSK-3α/β was investigated according preceding procedures.
(§2) Buffers, kinase preparations, and assays were performed as described in ref. [12, 13, 14] according methods initially published in previous works.

DYRK1A [1] = molecular target: T1, DYRK1A (Homo sapiens, UniProt Q13627); assay: Kinase inhibition assay, DYRK1A; type: biochemical; conditions: for IC50: read-out: Kinase inhibitory potency (IC50) DYRK1A
Protocol: as §1, §2

CDK5/p25 = CDK5/p25 (Homo sapiens, UniProt Q00535); assay: Kinase inhibition assay, CDK5/p25; type: biochemical; conditions: for IC50: average of triplicate determination (<10% variation), read-out: Kinase inhibitory potency (IC50) CDK5/p25
Protocol: as §1, §2

CK1δ/ε [2] = assay: Kinase inhibition assay, CK1δ/ε; type: biochemical; conditions: for IC50: average of triplicate determination (<10% variation), read-out: Kinase inhibitory potency (IC50) CK1δ/ε
Protocol: as §1, §2

DYRK1A [3] = molecular target: T1, DYRK1A; design: method as in PMID 23237976, PMID 23124214, PMID 25549552; conditions: thieno[2,3-d]pyrimidin-4-amine congeners, already published data; cited from earlier work
CK1δ/ε [4] = test system: CK1δ/ε; design: method as in PMID 23237976, PMID 23124214, PMID 25549552; conditions: already published data, cited from earlier work; for IC50: thieno[2,3-d]pyrimidin-4-amine congeners
[5] = average of triplicate determination (<10% variation)

Sequence of CDK5/p25 (Q00535 whole entry, species assumed): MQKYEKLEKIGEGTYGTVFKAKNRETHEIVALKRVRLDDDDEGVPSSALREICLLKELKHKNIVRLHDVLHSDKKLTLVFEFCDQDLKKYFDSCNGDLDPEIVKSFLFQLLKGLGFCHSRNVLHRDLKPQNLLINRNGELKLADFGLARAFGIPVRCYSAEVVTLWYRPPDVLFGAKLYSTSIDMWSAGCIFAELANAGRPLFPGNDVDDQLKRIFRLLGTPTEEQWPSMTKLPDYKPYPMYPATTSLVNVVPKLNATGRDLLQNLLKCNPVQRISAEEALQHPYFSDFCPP
Sequence of CDK5/p25 (Q15078 99-307 partner limits assumed, species assumed): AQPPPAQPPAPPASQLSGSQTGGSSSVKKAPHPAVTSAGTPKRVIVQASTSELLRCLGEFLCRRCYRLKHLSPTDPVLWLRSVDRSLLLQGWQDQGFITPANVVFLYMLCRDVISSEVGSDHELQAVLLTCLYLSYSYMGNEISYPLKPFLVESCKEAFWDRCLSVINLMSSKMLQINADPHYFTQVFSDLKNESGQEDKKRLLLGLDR

SMILES	IC50 (GSK-3α/β) [µM]	IC50 (DYRK1A [1]; [5]) [µM]	IC50 (CDK5/p25) [µM]	IC50 (CK1δ/ε [2]) [µM]	Inhibitory activity against GSK3α/β (in words) (GSK-3α/β)	Inhibitory activity against CDK5/p25 (in words) (CDK5/p25)	Inhibitory activity against CK1δ/ε (in words) (CK1δ/ε [2])	IC50 (DYRK1A [3]) [µM]	Activity against CK1 (in words) (CK1δ/ε [4])	IC50 (CK1δ/ε [4]) [µM]	Inhibitory activity against DYRK1A (in words) (DYRK1A [1])	IC50 (DYRK1A [1]) [µM]
Cn1c2ccccc2c2c(N)ncnc21 [Compound 3b, 9-Methyl-9H-pyrimido[4,5-b]indol-4-amine]	> 10	> 10	> 10	2.5	–	–	–	–	–	–	–	–
Cn1c2cc([N+](=O)[O-])ccc2c2c(N)ncnc21 [Compound 4b, 9-Methyl-7-nitro-9H-pyrimido[4,5-b]indol-4-amine]	> 10	> 10	> 10	2.8	–	–	–	–	–	–	–	–
CCn1c2cc([N+](=O)[O-])ccc2c2c(N)ncnc21 [Compound 4c, 9-Ethyl-7-nitro-9H-pyrimido[4,5-b]indol-4-amine]	> 10	5.9	> 10	1.6	–	–	–	–	–	–	–	–
Nc1ncnc2c3cc([N+](=O)[O-])ccc3n(Cc3ccccc3)c12 [Compound 2d, 5-Benzyl-8-nitro-5H-pyrimido[5,4-b]indol-4-amine]	> 10	> 10	> 10	> 10	–	–	–	–	–	–	–	–
COc1ccc2c(c1)[nH]c1c(C)nccc12 [Compound 11a, harmine, reference compound]	> 10	–	–	1.5	definitely inactive	definitely inactive	–	–	–	–	–	–
CCn1c2ccccc2c2ncnc(N)c21 [Compound 1c, 5-Ethyl-5H-pyrimido[5,4-b]indol-4-amine]	> 10	4.1	> 10	2.8	–	–	–	–	–	–	–	–
COc1ccc2c3ccnc(C)c3n(Cc3ccccc3)c2c1 [Compound 11d, 9-Benzyl-7-methoxy-1-methyl-β-carboline]	> 10	0.059	> 10	> 10	totally inactive	totally inactive	totally inactive	–	–	–	–	–
CCn1c2ccc([N+](=O)[O-])cc2c2ncnc(N)c21 [Compound 2c, 5-Ethyl-8-nitro-5H-pyrimido[5,4-b]indol-4-amine]	> 10	> 10	> 10	> 10	–	–	–	–	–	–	–	–
Nc1ncnc2c1c1ccc([N+](=O)[O-])cc1n2Cc1ccccc1 [Compound 4d, 9-Benzyl-7-nitro-9H-pyrimido[4,5-b]indol-4-amine]	> 10	> 10	> 10	> 10	–	–	–	–	–	–	–	–
Nc1ncnc2c1[nH]c1ccccc12 [Compound 1a, 5H-Pyrimido[5,4-b]indol-4-amine]	> 10	2.2	> 10	2	–	–	–	–	–	–	–	–
COc1ccc2c3ccnc(C)c3n(C)c2c1 [Compound 11b, 7-Methoxy-1,9-dimethyl-β-carboline]	> 10	–	> 10	> 10	totally inactive	totally inactive	totally inactive	–	–	–	–	–
Nc1ncnc2c1sc1cccnc12 [Compound 14]	–	–	–	–	–	–	–	6	micromolar and submicromolar activity	1.8	–	–
Nc1ncnc2c1[nH]c1ccc([N+](=O)[O-])cc12 [Compound 2a, 8-Nitro-5H-pyrimido[5,4-b]indol-4-amine]	> 10	7.6	> 10	> 10	–	–	no inhibition	–	–	–	low micromolar activity	–
Nc1ncnc2c1sc1nccnc12 [Compound 13]	–	–	–	–	–	–	–	> 10	micromolar and submicromolar activity	2.4	–	–
Nc1ncnc2c3ccccc3n(Cc3ccccc3)c12 [Compound 1d, 5-Benzyl-5H-pyrimido[5,4-b]indol-4-amine]	> 10	> 10	> 10	0.6	–	–	–	–	–	–	lack of activity	–
Nc1ncnc2c1sc1ccccc12 [Compound 12]	–	–	–	–	–	–	–	33	–	0.79	–	–
Nc1ncnc2[nH]c3cc([N+](=O)[O-])ccc3c12 [Compound 4a, 7-Nitro-9H-pyrimido[4,5-b]indol-4-amine]	> 10	7.6	> 10	3.5	–	–	–	–	–	–	–	–
Nc1ncnc2c1sc1ncccc12 [Compound 15]	–	–	–	–	–	–	–	> 10	micromolar and submicromolar activity	0.031	–	–
Cn1c2ccccc2c2ncnc(N)c21 [Compound 1b, 5-Methyl-5H-pyrimido[5,4-b]indol-4-amine]	> 10	5.8	> 10	4	–	–	–	–	–	–	–	–
CCn1c2ccccc2c2c(N)ncnc21 [Compound 3c, 9-Ethyl-9H-pyrimido[4,5-b]indol-4-amine]	> 10	9.8	> 10	1.6	–	–	–	–	–	–	–	–
CCn1c2cc(OC)ccc2c2ccnc(C)c21 [Compound 11c, 9-Ethyl-7-methoxy-1-methyl-β-carboline]	> 10	–	> 10	> 10	totally inactive	totally inactive	totally inactive	–	–	–	–	0.037
Cn1c2ccc([N+](=O)[O-])cc2c2ncnc(N)c21 [Compound 2b, 5-Methyl-8-nitro-5H-pyrimido[5,4-b]indol-4-amine]	> 10	> 10	> 10	> 10	–	–	–	–	–	–	–	–
Nc1ncnc2c1c1ccccc1n2Cc1ccccc1 [Compound 3d, 9-Benzyl-9H-pyrimido[4,5-b]indol-4-amine]	> 10	> 10	> 10	2.7	–	–	–	–	–	–	–	–
Nc1ncnc2[nH]c3ccccc3c12 [Compound 3a, 9H-Pyrimido[4,5-b]indol-4-amine]	> 10	3.1	6	0.7	–	–	–	–	–	–	–	–
